# Laboratory results: US20260345517A1, “DOSAGE REGIMENS FOR TREATING STARGARDT DISEASE” (Alkeus Pharmaceuticals, Inc., priority 2024, published 2026)
# Assay: TEASE-1: safety and adverse events
# Format: in vivo, human
# Description: The Tolerability and Effects of gildeuretinol acetate in Stargardt Disease (Clinical trial group 1 also known as TEASE-1) was a 24-month, multicenter, double-masked, placebo-controlled trial designed to evaluate the efficacy and safety of daily oral gildeuretinol acetate in slowing the growth of atrophic retinal lesions in Stargardt disease patients. The trial was conducted at multiple sites in the United States (NCT02402660).
# Patients 12 years or older, clinically diagnosed with Stargardt disease, with at least one ABCA4 mutation, at least one eye presenting with well-demarcated areas of reduced fundus autofluorescence, and with any visual acuity, were eligible.
# Patients were randomized to gildeuretinol acetate 14 mg capsules, gildeuretinol acetate 24 mg capsules, or placebo capsules, to be taken once daily for one year. After one year, 50% of randomly selected patients receiving placebo were crossed over in a 1:1 ratio to gildeuretinol acetate 14 mg capsules or gildeuretinol acetate 24 mg capsules for a second year.
# Gildeuretinol acetate and placebo capsules were identical appearing capsules. Patients were advised to avoid vitamin A-containing supplements and liver-based products. Fruits and vegetables contain beta-carotene, not preformed vitamin A, and could be consumed without limitation. Trial visits occurred at 8 weeks and 6, 12, 18, and 24 months following screening and randomization.
smiles,measurement,setting,value
"CC(=O)OC/C=C(C)/C=C/C=C(C)/C=C/C1=C(C)CCCC1(C)C [gildeuretinol acetate, C20-D3-retinol acetate]","changes by physical examination, electrocardiogram, vital signs, hematology, biochemistry and lipid panels",14 mg and 24 mg,no changes were attributed to gildeuretinol acetate
same,changes in visual acuity,14 mg and 24 mg,No changes in visual acuity were observed
same,discontinuation due to side effects,14 mg and 24 mg,no patient discontinued treatment due to side effects
same,serious adverse events,14 mg and 24 mg,No serious adverse events
same,severity of adverse events,14 mg and 24 mg,mild or moderate
same,association between treatment groups and frequency of adverse events,14 mg and 24 mg vs placebo,no association was observed
same,Abdominal discomfort,"14 mg, N = 15",0 patients (%)
same,Abdominal distension,"14 mg, N = 15",0 patients (%)
same,Abdominal pain upper,"14 mg, N = 15",0 patients (%)
same,Abnormal dreams,"14 mg, N = 15",0 patients (%)
same,"Adverse events, Overall","14 mg, N = 15",12 (80) patients (%)
same,Alanine aminotransferase increased,"14 mg, N = 15",1 (6.7) patients (%)
same,Alopecia,"14 mg, N = 15",2 (13.3) patients (%)
same,Ankle fracture,"14 mg, N = 15",1 (6.7) patients (%)
same,Arthralgia,"14 mg, N = 15",1 (6.7) patients (%)
same,Arthritis,"14 mg, N = 15",0 patients (%)
same,Aspartate aminotransferase increased,"14 mg, N = 15",1 (6.7) patients (%)
same,Back injury,"14 mg, N = 15",0 patients (%)
same,Back pain,"14 mg, N = 15",0 patients (%)
same,Blepharospasm,"14 mg, N = 15",0 patients (%)
same,Blood cholesterol increased,"14 mg, N = 15",0 patients (%)
same,Blood creatinine increased,"14 mg, N = 15",1 (6.7) patients (%)
same,Blood iron decreased,"14 mg, N = 15",0 patients (%)
same,Blood pressure increased,"14 mg, N = 15",0 patients (%)
same,Blood triglycerides increased,"14 mg, N = 15",1 (6.7) patients (%)
same,Bowel movement irregularity,"14 mg, N = 15",0 patients (%)
same,Bronchitis,"14 mg, N = 15",0 patients (%)
same,Cartilage injury,"14 mg, N = 15",1 (6.7) patients (%)
same,Conjunctival laceration,"14 mg, N = 15",0 patients (%)
same,Conjunctivitis,"14 mg, N = 15",1 (6.7) patients (%)
same,Constipation,"14 mg, N = 15",0 patients (%)
same,Cough,"14 mg, N = 15",0 patients (%)
same,Death,"14 mg, N = 15",1 (6.7) patients (%)
same,Depression,"14 mg, N = 15",1 (6.7) patients (%)
same,Diarrhoea,"14 mg, N = 15",1 (6.7) patients (%)
same,Diplopia,"14 mg, N = 15",0 patients (%)
same,Dry eye,"14 mg, N = 15",0 patients (%)
same,Dry mouth,"14 mg, N = 15",1 (6.7) patients (%)
same,Dry skin,"14 mg, N = 15",0 patients (%)
same,Ear discomfort,"14 mg, N = 15",0 patients (%)
same,Ear infection,"14 mg, N = 15",0 patients (%)
same,Ear pain,"14 mg, N = 15",0 patients (%)
same,Eczema,"14 mg, N = 15",0 patients (%)
same,Electrocardiogram abnormal,"14 mg, N = 15",0 patients (%)
same,Erythema,"14 mg, N = 15",0 patients (%)
same,Eye irritation,"14 mg, N = 15",1 (6.7) patients (%)
same,Eye pain,"14 mg, N = 15",0 patients (%)
same,Eye pruritus,"14 mg, N = 15",0 patients (%)
same,Face injury,"14 mg, N = 15",1 (6.7) patients (%)
same,Faeces soft,"14 mg, N = 15",1 (6.7) patients (%)
same,Fall,"14 mg, N = 15",1 (6.7) patients (%)
same,Gastroenteritis,"14 mg, N = 15",1 (6.7) patients (%)
same,Gastroenteritis viral,"14 mg, N = 15",0 patients (%)
same,Hair texture abnormal,"14 mg, N = 15",0 patients (%)
same,Hand fracture,"14 mg, N = 15",1 (6.7) patients (%)
same,Headache,"14 mg, N = 15",1 (6.7) patients (%)
same,Herpes zoster,"14 mg, N = 15",1 (6.7) patients (%)
same,Hordeolum,"14 mg, N = 15",0 patients (%)
same,Hypertension,"14 mg, N = 15",0 patients (%)
same,Hypobarism,"14 mg, N = 15",0 patients (%)
same,Hypothyroidism,"14 mg, N = 15",0 patients (%)
same,Hysterectomy,"14 mg, N = 15",0 patients (%)
same,Inflammation,"14 mg, N = 15",0 patients (%)
same,Influenza,"14 mg, N = 15",0 patients (%)
same,Insomnia,"14 mg, N = 15",1 (6.7) patients (%)
same,Intracranial pressure increased,"14 mg, N = 15",0 patients (%)
same,Irritability,"14 mg, N = 15",0 patients (%)
same,Jaw operation,"14 mg, N = 15",0 patients (%)
same,Knee arthroplasty,"14 mg, N = 15",1 (6.7) patients (%)
same,Laryngitis,"14 mg, N = 15",1 (6.7) patients (%)
same,Lip swelling,"14 mg, N = 15",0 patients (%)
same,Low density lipoprotein increased,"14 mg, N = 15",1 (6.7) patients (%)
same,Muscle spasms,"14 mg, N = 15",1 (6.7) patients (%)
same,Muscle strain,"14 mg, N = 15",0 patients (%)
same,Musculoskeletal pain,"14 mg, N = 15",1 (6.7) patients (%)
same,Nasopharyngitis,"14 mg, N = 15",2 (13.3) patients (%)
same,Nausea,"14 mg, N = 15",0 patients (%)
same,Neck pain,"14 mg, N = 15",0 patients (%)
same,Nephrolithiasis,"14 mg, N = 15",1 (6.7) patients (%)
same,Nerve compression,"14 mg, N = 15",0 patients (%)
same,Neuralgia,"14 mg, N = 15",1 (6.7) patients (%)
same,Obsessive-compulsive disorder,"14 mg, N = 15",0 patients (%)
same,Oropharyngeal pain,"14 mg, N = 15",0 patients (%)
same,Osteoporosis,"14 mg, N = 15",0 patients (%)
same,Pain,"14 mg, N = 15",2 (13.3) patients (%)
same,Pain in extremity,"14 mg, N = 15",1 (6.7) patients (%)
same,Pain in jaw,"14 mg, N = 15",0 patients (%)
same,Peripheral coldness,"14 mg, N = 15",0 patients (%)
same,Pharyngitis streptococcal,"14 mg, N = 15",1 (6.7) patients (%)
same,Photophobia,"14 mg, N = 15",1 (6.7) patients (%)
